Test results reported in PMC11117721, “A Fast-Binding, Functionally Reversible, COX-2 Radiotracer for CNS PET Imaging” (ACS Central Science, 2024).
Values after ≈ are worked out from the molar mass of the structure shown. Values joined by “and” are separate entries in the source; they are usually repeats but may differ in a detail not shown here. Equal values may be shown once.

Key:
[1] = molecular target: T1, COX-2 (Homo sapiens, UniProt P35354); assay: Lipophilic ligand efficiency (LLE)
T1 sequence (P35354 18-604): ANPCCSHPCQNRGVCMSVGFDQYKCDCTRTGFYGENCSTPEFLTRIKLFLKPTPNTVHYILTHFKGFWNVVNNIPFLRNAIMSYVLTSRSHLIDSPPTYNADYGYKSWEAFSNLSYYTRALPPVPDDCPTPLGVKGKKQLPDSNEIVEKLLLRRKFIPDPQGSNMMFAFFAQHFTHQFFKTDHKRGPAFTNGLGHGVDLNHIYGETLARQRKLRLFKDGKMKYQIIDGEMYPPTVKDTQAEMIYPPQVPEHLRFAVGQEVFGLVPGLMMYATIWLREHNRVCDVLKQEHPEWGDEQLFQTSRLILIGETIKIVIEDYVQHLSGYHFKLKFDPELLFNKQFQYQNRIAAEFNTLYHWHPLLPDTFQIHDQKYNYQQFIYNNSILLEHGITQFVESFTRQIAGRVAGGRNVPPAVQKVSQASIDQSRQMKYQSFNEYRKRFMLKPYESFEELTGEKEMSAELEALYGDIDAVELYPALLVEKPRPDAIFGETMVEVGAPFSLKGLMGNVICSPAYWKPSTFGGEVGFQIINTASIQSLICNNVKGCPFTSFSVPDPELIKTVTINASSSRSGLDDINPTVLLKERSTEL

[2] = Plasma protein binding (fraction unbound in plasma, Fup); type: in vitro ADME, mouse; conditions: for Fup: as fraction, plasma protein binding; for Fup (mouse, %): mouse plasma
Excerpt: (§1) To select the best starting point for COX-2 radiotracer development, we extensively profiled a large set of known COX-2 selective inhibitors. Our primary focus was to identify a ligand with high binding affinity, COX-2 selectivity over COX-1, fast on-rate binding kinetics and improved free fraction in plasma to maximize the signal-to-noise ratio in PET imaging experiments. […] To anticipate fast washout pharmacokinetics in vivo, we utilized simple plasma and brain protein binding assays to maximize the unbound fraction.

[3] = molecular target: P-gp (Homo sapiens, UniProt P08183); assay: Efflux ratio (ER) / P-gp efflux; type: in vitro ADME; conditions: for ER: efflux ratio
P-gp, sequence (P08183 whole entry): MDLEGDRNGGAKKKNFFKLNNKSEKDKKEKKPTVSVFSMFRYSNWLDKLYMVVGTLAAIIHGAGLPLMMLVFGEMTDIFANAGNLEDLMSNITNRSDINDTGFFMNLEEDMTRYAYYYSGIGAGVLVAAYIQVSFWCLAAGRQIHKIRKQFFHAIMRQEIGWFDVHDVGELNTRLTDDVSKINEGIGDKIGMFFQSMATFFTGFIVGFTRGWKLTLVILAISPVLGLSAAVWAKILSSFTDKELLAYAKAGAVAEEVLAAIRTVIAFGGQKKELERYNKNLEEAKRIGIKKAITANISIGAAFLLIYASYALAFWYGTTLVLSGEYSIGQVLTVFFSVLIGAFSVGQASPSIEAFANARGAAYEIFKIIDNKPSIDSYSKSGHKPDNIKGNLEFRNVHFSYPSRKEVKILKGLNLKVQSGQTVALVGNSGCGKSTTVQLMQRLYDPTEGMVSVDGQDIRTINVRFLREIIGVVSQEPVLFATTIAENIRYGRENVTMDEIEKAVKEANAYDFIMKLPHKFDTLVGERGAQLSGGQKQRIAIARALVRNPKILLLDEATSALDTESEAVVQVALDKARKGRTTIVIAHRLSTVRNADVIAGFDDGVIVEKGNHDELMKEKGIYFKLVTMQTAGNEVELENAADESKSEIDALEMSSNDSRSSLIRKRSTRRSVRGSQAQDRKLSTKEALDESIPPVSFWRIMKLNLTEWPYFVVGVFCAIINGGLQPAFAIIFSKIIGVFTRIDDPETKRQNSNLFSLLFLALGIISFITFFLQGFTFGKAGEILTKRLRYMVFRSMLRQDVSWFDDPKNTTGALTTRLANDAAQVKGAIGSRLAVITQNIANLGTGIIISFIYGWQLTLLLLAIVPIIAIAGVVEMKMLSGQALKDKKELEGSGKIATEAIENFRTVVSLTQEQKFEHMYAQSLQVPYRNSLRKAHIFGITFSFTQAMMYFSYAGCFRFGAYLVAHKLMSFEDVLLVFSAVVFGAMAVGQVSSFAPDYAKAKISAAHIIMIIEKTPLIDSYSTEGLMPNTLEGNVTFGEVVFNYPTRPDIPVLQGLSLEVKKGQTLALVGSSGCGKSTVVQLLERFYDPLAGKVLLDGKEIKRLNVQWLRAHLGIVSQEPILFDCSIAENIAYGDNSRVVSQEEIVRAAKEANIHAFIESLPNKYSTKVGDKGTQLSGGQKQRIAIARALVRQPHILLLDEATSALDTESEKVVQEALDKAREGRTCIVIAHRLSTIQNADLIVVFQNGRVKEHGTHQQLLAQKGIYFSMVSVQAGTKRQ

[4] = molecular target: T1, COX-2; assay: LCMS-based biochemical COX-2 assay (arachidonic acid to PGE2), short 2 min enzyme-inhibitor incubation; conditions: COX2 IC50 (nM, 2 min), LCMS readout
Excerpt: To anticipate fast washout pharmacokinetics in vivo, we utilized simple plasma and brain protein binding assays to maximize the unbound fraction. […] Previous COX-2 discovery relied on whole blood assays to measure COX-2 inhibition. Focusing on fast-binding inhibitors, we prioritized SAR derived from a rapid inhibition LCMS-based enzymatic assay.

[5] = Brain protein binding (fraction unbound in brain, Fub); type: in vitro ADME
Excerpt: as §1

[6] = Permeability (Papp); type: in vitro ADME; conditions: not told
[7] = Aqueous solubility in PBS; type: physicochemical; conditions: aqueous buffer, read-out: Aq. Sol. (PBS)
[8] = test system: COX-2; parameters: method as in earlier work; conditions: human brain PET; cited from earlier work

Compound	LLE [1]	fold improvement in plasma protein binding (PPB) ([2]; BRD1158 compared to MC1) [fold]	Fup [2]	Fup (mouse, %) [2] [%]	ER [3]	P-gp efflux ([3]; result in words)	IC50 [4]	Fub (mouse, %) [5] [%]	Papp [6] [nm/s]	solubility [7] [µM]	specific binding of the tracer (of the total uptake) [8]
CS(=O)(=O)c1ccc(-c2cccc(NCc3ccoc3)n2)cc1 [BRD1158]	4.78	4	0.091	9.1	0.9	no P-gp efflux	24.6 nM and 25 nM	2.2	508		
CS(=O)(=O)c1ccc(-c2cccc(OCc3cccs3)n2)cc1 [BRD2369]	4.8			0.4	0.9		3.4 nM and 3 nM	0	337		
COc1cc(NCc2cccs2)nc(-c2ccc(S(C)(=O)=O)cc2)n1 [MC1, reference compound]			0.024	2.4				0.75	365	3.4 (≈ 1.28 µg/mL)	
CS(=O)(=O)c1ccc(-c2nc(NCc3cccs3)cc(O[11CH3])n2)cc1 [[^11C]MC1]											10%–20%
